According to publication PMC5562305, “Impact of novel palmitoylated prolactin-releasing peptide analogs on metabolic changes in mice with diet-induced obesity” (PLoS ONE, 2017):
Starred links: 1 amine or outer side, 2 acyl side, 3 side chain; linkers in the order of their positions; H or OH if unused. Residues, ends and D or L forms follow the SMILES beside them. Groups on a side chain read outwards from the residue. *: point of attachment. TTDA(Palmitoyl) = CCCCCCCCCCCCCCCC(=O)NCCCOCCOCCOCCCN*; Suc = O=C(CCC(=O)[*:2])[*:1]

Tested on: urinary metabolites
Assay: NMR-based metabolomics of urine of DIO mice
Assay type: in vivo, C57BL/6 mice
Design: key to DMA, Mean / DMG, Mean / MA, Mean / TMA, Mean / acetate, Mean / allantoin, Mean / carnitine, Mean / choline, Mean / cis-aconitate, Mean / creatine+creatinine, Mean / creatine, Mean / creatinine, Mean / ethanolamine, Mean / formate, Mean / galactose, Mean / glucose, Mean / glycine, Mean / lactate, Mean / succinate, Mean / vinylacetylglycine, Mean: TSA-normalized intensity of the metabolite's representative NMR signal
Conditions: urine of DIO mice, NMR metabolomics
Protocol: Urine samples for NMR-based metabolomics were collected prior to the start of the interventions and at the end of the experiment. For overnight urine collection (from 5 pm to 8 am), the mice were housed in individual metabolic cages (Tecniplast, Buguggiate, Italy) without access to food. Samples were collected with the addition of NaN3 and stored at -80°C until NMR analysis.
The urine samples were thawed at room temperature and centrifuged at 13 684 x g for 5 min prior to the NMR experiments. A 200-μl aliquot of supernatant was diluted with 340 μl of H2O mixed with 60 μl of phosphate buffer (1.5 M KH2PO4 in D2O containing 2 mM NaN3 and 0.1% trimethylsilyl propionic acid (TSP), pH 7.4) and transferred to a 5-mm NMR tube. The NMR data were acquired with a 600 MHz Bruker Avance III spectrometer (Bruker BioSpin, Rheinstetten, Germany) equipped with a 5-mm TCI cryogenic probe head. All of the experiments were performed at 300 K. Automatic tuning, matching, shimming and adjusting of the 90° pulse length were performed for each sample.
As mouse urine naturally contains urinary proteins, the NMR spectra were acquired using a Carr-Purcell-Meiboom-Gill (CPMG) pulse sequence with water presaturation (Bruker pulse sequence cpmgpr1d) to eliminate the strong protein background. […] For better metabolite identification, a short J-resolved experiment with presaturation (NS = 2, SW = 16 ppm, TD = 8k, number of increments = 40, SW = 78.125 Hz in the indirect dimension, and relaxation delay = 2 s) was executed for all samples. Additional two-dimensional ^1H-^1H correlation spectroscopy (COSY) and ^1H-^13C heteronuclear multiple-quantum correlation (HMQC) experiments (Bruker pulse sequences cosygpprqf and hmqcphpr) were performed for selected samples.
The acquired data were processed using Topspin 3.2 software (Bruker BioSpin, Rheinstetten, Germany). Line broadening of 0.3 Hz was applied on free induction decays (FIDs) prior to Fourier transformation. The spectra were automatically phased, baseline corrected and referenced to the signal of TSP (0.00 ppm).
The assignment of individual metabolites was achieved by comparing the proton spectra with the spectra of pure metabolites using Chenomx NMR Suite 7.6 (Chenomx Inc., Edmonton, AB, Canada), the HMDB database and previously published metabolomic data. The identification of metabolites was supported through J-resolved and COSY experiments and, if possible, confirmed using carbon chemical shifts extracted from the HMQC spectra.
For quantitation of individual metabolites, the CPMG spectra were uniformly binned in the range of 0.10–10.00 ppm to 0.01-ppm intervals using AMIX software (Bruker BioSpin, Rheinstetten, Germany). This procedure reduced the dimensionality of the data, eliminated chemical shift variations and thus simplified the reproducible automatic quantification. Regions corresponding to water (4.60–4.90 ppm) and urea (5.60–6.00 ppm) were removed prior to analysis. As the dilutions of the original urine samples differed (due to the differences in water intake during urine collection), all of the spectra were normalized to the total spectral area (TSA). For each identified metabolite, one representative signal was chosen and then quantified as the sum of appropriate adjacent 0.01-ppm bins to cover the whole signal width. The metabolite concentration was expressed as the TSA-normalized intensity of the respective signal. For selection of an appropriate statistical method (parametric or non-parametric) the Lilliefors test of normality was performed. […] Metabolite alterations with a P < 0.05 were considered statistically significant. Statistical analysis was performed using Matlab software (“MATLAB version 8.6 (R2015b). Natick, Massachusetts: The MathWorks Inc., 2015.,” n.d.). […]

[1] = difference of analog mean vs saline mean

CCCCCCCCCCCCCCCC(=O)NCCCOCCOCCOCCCNC(=O)CCC(=O)NCCCC[C@H](NC(=O)[C@@H](NC(=O)[C@H](CCC(=O)O)NC(=O)[C@H](CCSC)NC(=O)[C@H](CO)NC(=O)[C@H](Cc1c[nH]cn1)NC(=O)[C@H](CCCNC(=N)N)NC(=O)[C@H](Cc1c[nH]cn1)NC(=O)[C@@H](NC(=O)[C@H](CCCNC(=N)N)NC(=O)[C@H](CO)NC(=O)CCC(=O)NCCCOCCOCCOCCCNC(=O)CCCCCCCCCCCCCCC)[C@@H](C)O)[C@@H](C)CC)C(=O)N[C@H](C(=O)N1CCC[C@H]1C(=O)N[C@@H](CC(=O)O)C(=O)N[C@H](C(=O)N[C@@H](CC(N)=O)C(=O)N1CCC[C@H]1C(=O)N[C@@H](C)C(=O)N[C@@H](Cc1c[nH]c2ccccc12)C(=O)N[C@@H](Cc1ccc(O)cc1)C(=O)N[C@@H](C)C(=O)N[C@@H](CO)C(=O)N[C@@H](CCCNC(=N)N)C(=O)NCC(=O)N[C@H](C(=O)N[C@@H](CCCNC(=N)N)C(=O)N1CCC[C@H]1C(=O)N[C@H](C(=O)NCC(=O)N[C@@H](CCCNC(=N)N)C(=O)N[C@@H](Cc1ccccc1)C(N)=O)C(C)C)[C@@H](C)CC)[C@@H](C)CC)[C@@H](C)O [analog 3] ({TTDA(Palmitoyl)-Suc}-SRTHRHSMEIK([Suc-TTDA(Palmitoyl)])TPDINPAWYASRGIRPVGRF-NH2)
creatine, Saline/analog % [1]: 0.053% | creatinine, Saline/analog % [1]: 0.053% | ethanolamine, Saline/analog % [1]: 0.053% | formate, Saline/analog % [1]: 0.00334% | fumarate, Saline/analog % [1]: -0.141% | galactose, Saline/analog % [1]: -0.254% | glucose, Saline/analog % [1]: -0.116% | glycine, Saline/analog % [1]: -0.035% | hexanoylglycine + acids (0.88 ppm), Saline/analog % [1]: 0.165% | hippurate (7.55 ppm), Saline/analog % [1]: -0.140% | hippurate (7.64 ppm), Saline/analog % [1]: -0.133% | hippurate (7.84 ppm), Saline/analog % [1]: -0.124% | lactate, Saline/analog % [1]: 0.112% | multiplet acids (1.6 ppm), Saline/analog % [1]: 0.172% | putrescin, Saline/analog % [1]: -0.021% | succinate, Saline/analog % [1]: -0.140% | taurine (3.27 ppm), Saline/analog % [1]: -0.063% | taurine (3.43 ppm), Saline/analog % [1]: -0.093% | trigonelline (8.84 ppm), Saline/analog % [1]: -0.159% | trigonelline (9.13 ppm), Saline/analog % [1]: -0.171% | vinylacetylglycine, Saline/analog % [1]: 0.175% | 2-OG (2.45 ppm), Mean (group mean): 11.878 | 2-OG (3.01 ppm), Mean (group mean): 10.469 | 2-PY (8.33 ppm), Mean (group mean): 1.098 | 3-indoxylsulfate (7.51 ppm), Mean (group mean): 1.344 | 3-indoxylsulfate (7.71 ppm), Mean (group mean): 0.810 | 4-PY (7.97 ppm), Mean (group mean): 2.017 | 4-PY (8.55 ppm), Mean (group mean): 0.633 | DMA, Mean (group mean): 5.618 | DMG, Mean (group mean): 1.853 | MA, Mean (group mean): 3.016 | MNA (8.90 ppm), Mean (group mean): 0.487 | MNA (8.97 ppm), Mean (group mean): 0.470 | MNA (9.265 ppm), Mean (group mean): 0.490 | MNA-Nox (7.75 ppm), Mean (group mean): 0.972 | MNA-Nox (8.13 ppm), Mean (group mean): 0.792 | MNA-Nox (8.49 ppm), Mean (group mean): 0.511 | MNA-Nox (8.75 ppm), Mean (group mean): 0.485 | N-carbamoylalanine (2.38 ppm), Mean (group mean): 11.854 | N-carbamoylalanine (3.31 ppm), Mean (group mean): 9.499 | N-isovalerylglycine + oxovalerate (0.92 ppm), Mean (group mean): 16.056 | TMA, Mean (group mean): 11.780 | acetate, Mean (group mean): 3.429 | allantoin, Mean (group mean): 22.447 | carnitine, Mean (group mean): 6.067 | choline, Mean (group mean): 1.970 | cis-aconitate, Mean (group mean): 8.481 | citrate (2.55 ppm), Mean (group mean): 29.434 | citrate (2.69 ppm), Mean (group mean): 26.220 | creatine+creatinine, Mean (group mean): 24.904 | creatine, Mean (group mean): 7.343 | creatinine, Mean (group mean): 11.686 | ethanolamine, Mean (group mean): 8.370 | formate, Mean (group mean): 0.199 | fumarate, Mean (group mean): 0.151 | galactose, Mean (group mean): 0.578 | glucose, Mean (group mean): 3.207 | glycine, Mean (group mean): 5.874 | hexanoylglycine + acids (0.88 ppm), Mean (group mean): 15.361 | hippurate (7.55 ppm), Mean (group mean): 3.987 | hippurate (7.64 ppm), Mean (group mean): 2.057 | hippurate (7.84 ppm), Mean (group mean): 4.311 | lactate, Mean (group mean): 6.853 | multiplet acids (1.6 ppm), Mean (group mean): 12.521 | putrescin, Mean (group mean): 8.726 | succinate, Mean (group mean): 9.267 | taurine (3.27 ppm), Mean (group mean): 24.146 | taurine (3.43 ppm), Mean (group mean): 20.508 | trigonelline (8.84 ppm), Mean (group mean): 0.263 | trigonelline (9.13 ppm), Mean (group mean): 0.106 | vinylacetylglycine, Mean (group mean): 3.527
